pIC50: −log10 of the molar value.
Molecular target: T1, KCNT1 (KNa1.1, Slack) (Homo sapiens, UniProt Q5JUK3)
T1 construct: expressed in transfected cells; host or cells: HEK-TREX (tetracycline-inducible HEK cell line)
T1 sequence (Q5JUK3 1-1230): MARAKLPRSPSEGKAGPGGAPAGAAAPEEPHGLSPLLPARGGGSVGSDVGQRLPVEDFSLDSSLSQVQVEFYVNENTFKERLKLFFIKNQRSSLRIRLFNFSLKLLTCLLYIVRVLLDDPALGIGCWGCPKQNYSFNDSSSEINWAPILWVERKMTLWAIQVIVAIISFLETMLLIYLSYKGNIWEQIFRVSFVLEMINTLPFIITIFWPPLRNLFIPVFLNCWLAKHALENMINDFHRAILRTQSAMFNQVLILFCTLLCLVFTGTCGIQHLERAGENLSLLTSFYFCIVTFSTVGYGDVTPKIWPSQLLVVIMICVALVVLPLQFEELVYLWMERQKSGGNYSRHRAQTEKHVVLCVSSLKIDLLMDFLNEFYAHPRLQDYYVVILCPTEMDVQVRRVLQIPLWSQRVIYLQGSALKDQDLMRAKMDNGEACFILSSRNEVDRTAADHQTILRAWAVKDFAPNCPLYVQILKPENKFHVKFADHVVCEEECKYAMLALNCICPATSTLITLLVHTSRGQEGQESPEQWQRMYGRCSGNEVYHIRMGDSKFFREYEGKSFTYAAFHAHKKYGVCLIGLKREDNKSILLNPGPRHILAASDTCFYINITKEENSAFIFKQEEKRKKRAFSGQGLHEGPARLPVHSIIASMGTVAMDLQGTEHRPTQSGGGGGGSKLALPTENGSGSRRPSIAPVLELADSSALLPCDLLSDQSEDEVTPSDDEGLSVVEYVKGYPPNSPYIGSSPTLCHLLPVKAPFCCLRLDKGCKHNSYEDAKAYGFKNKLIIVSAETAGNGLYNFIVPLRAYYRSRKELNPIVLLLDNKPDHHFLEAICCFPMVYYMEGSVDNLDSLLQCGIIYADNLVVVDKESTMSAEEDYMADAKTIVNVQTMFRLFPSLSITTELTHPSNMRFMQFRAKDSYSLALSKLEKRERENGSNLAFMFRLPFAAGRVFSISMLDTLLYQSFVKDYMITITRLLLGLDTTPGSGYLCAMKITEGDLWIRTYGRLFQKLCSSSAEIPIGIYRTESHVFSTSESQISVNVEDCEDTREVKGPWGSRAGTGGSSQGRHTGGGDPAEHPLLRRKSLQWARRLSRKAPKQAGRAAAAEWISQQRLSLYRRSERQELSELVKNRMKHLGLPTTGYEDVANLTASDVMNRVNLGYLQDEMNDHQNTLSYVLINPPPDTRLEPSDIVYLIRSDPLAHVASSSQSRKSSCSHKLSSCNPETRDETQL
Experiment: KCNT1 patch clamp assay (SyncroPatch 384PE, HEK-TREX inducible cell line)
Format: cell-based
Conditions: wild-type KCNT1, HEK-TREX cells, automated perforated patch clamp, step to 0 mV, room temperature; read-out: KCNT1-WT IC50
Experimental: Inhibition of KCNT1 (KNa1.1, Slack) was evaluated using a tetracycline inducible cell line (HEK-TREX). Currents were recorded using the SyncroPatch 384PE automated, patch clamp system. Pulse generation and data collection were performed with PatchController384 V1.3.0 and DataController384 V1.2.1 (Nanion Technologies). The access resistance and apparent membrane capacitance were estimated using built-in protocols. Current were recorded in perforated patch mode (10 μM escin) from a population of cells. The cells were lifted, triturated, and resuspended at 800,000 cells/ml. The cells were allowed to recover in the cell hotel prior to experimentation. Currents were recorded at room temperature. The external solution contained the following (in mM): NaCl 105, NMDG 40, KCl 4, MgCl2 1, CaCl2) 5 and HEPES 10 (pH=7.4, Osmolarity ˜300 mOsm). The extracellular solution was used as the wash, reference and compound delivery solution. The internal solution contained the following (in mM): NaCl 70, KF 70, KCl 10, EGTA 5, HEPES 5 and Escin 0.01 (pH=7.2, Osmolarity ˜295 mOsm). Escin is made at a 5 mM stock in water, aliquoted, and stored at −20° C. The compound plate was created at 2× concentrated in the extracellular solution. The compound was diluted to 1:2 when added to the recording well. The amount of DMSO in the extracellular solution was held constant at the level used for the highest tested concentration. A holding potential of −80 mV with a 100 ms step to 0 mV was used. Mean current was measured during the step to 0 mV. […] The average mean current from 3 sweeps was calculated and the % inhibition of each compound was calculated. The % Inhibition as a function of the compound concentration was fit with a Hill equation to derive IC50, slope, min and max parameters. If KCNT1 inhibition was less than 50% at the highest tested concentration or if an IC50 could not be calculated, then a percent inhibition was reported in place of the IC50.
In this table, “A” indicates IC50 of less than or equal to 1 μM; “B” indicates inhibition of between 1 μM to 20 μM; and “C” indicates inhibition of greater than or equal to 20 μM.

Row | pIC50 | SMILES
1 | ≥ 6.00 | CC(C)c1cc(C(=O)N[C@@H](C)c2nc(-c3ccnc(C4CC4)c3)no2)n(C)n1 [Compound 1, (S)—N-(1-(3-(2-cyclopropylpyridin-4-yl)-1,2,4-oxadiazol-5-yl)ethyl)-3-isopropyl-1-methyl-1H-pyrazole-5-carboxamide]
2 | ≥ 6.00 | CC(C)n1nccc1C(=O)N[C@@H](C)c1nc(-c2ccnc(C3CC3)c2)no1 [Compound 2, (S)—N-(1-(3-(2-cyclopropylpyridin-4-yl)-1,2,4-oxadiazol-5-yl)ethyl)-1-isopropyl-1H-pyrazole-5-carboxamide]
3 | ≥ 6.00 | C[C@H](NC(=O)c1cc(C2CC2)nn1C)c1nc(-c2ccnc(C3CC3)c2)no1 [Compound 3, (S)-3-cyclopropyl-N-(1-(3-(2-cyclopropylpyridin-4-yl)-1,2,4-oxadiazol-5-yl)ethyl)-1-methyl-1H-pyrazole-5-carboxamide]
4 | ≥ 6.00 | C[C@H](NC(=O)c1cc(C(C)(C)C)nn1C)c1nc(-c2ccnc(C3CC3)c2)no1 [Compound 4, (S)-3-(tert-butyl)-N-(1-(3-(2-cyclopropylpyridin-4-yl)-1,2,4-oxadiazol-5-yl)ethyl)-1-methyl-1H-pyrazole-5-carboxamide]
5 | ≥ 6.00 | CCn1nccc1C(=O)N[C@@H](C)c1nc(-c2ccnc(C3CC3)c2)no1 [Compound 5, (S)—N-(1-(3-(2-cyclopropylpyridin-4-yl)-1,2,4-oxadiazol-5-yl)ethyl)-1-ethyl-1H-pyrazole-5-carboxamide]
6 | ≥ 6.00 | C[C@H](NC(=O)c1ccnn1C(C)(C)C)c1nc(-c2ccnc(C3CC3)c2)no1 [Compound 6, (S)-1-(tert-butyl)-N-(1-(3-(2-cyclopropylpyridin-4-yl)-1,2,4-oxadiazol-5-yl)ethyl)-1H-pyrazole-5-carboxamide]
7 | 4.70 to 6.00 | C[C@H](NC(=O)c1ccnn1C1CCC1)c1nc(-c2ccnc(C3CCC3)c2)no1 [Compound 7, (S)-1-cyclobutyl-N-(1-(3-(2-cyclobutylpyridin-4-yl)-1,2,4-oxadiazol-5-yl)ethyl)-1H-pyrazole-5-carboxamide]
8 | ≥ 6.00 | C[C@H](NC(=O)c1cc(C(F)F)nn1C)c1nc(-c2ccnc(C3CCC3)c2)no1 [Compound 8, (S)—N-(1-(3-(2-cyclobutylpyridin-4-yl)-1,2,4-oxadiazol-5-yl)ethyl)-3-(difluoromethyl)-1-methyl-1H-pyrazole-5-carboxamide]

— US11773088B2, “KCNT1 inhibitors and methods of use” (Praxis Precision Medicines, Inc., priority 2020, dated 2023)
